Data taken from ChEMBL document CHEMBL5291721, “A preclinical secondary pharmacology resource illuminates target-adverse drug reaction associations of marketed drugs” (Nat Commun, 2023).

Experiments:
[1] = target: Voltage-dependent L-type calcium channel subunit alpha-1C (Homo sapiens, UniProt Q13936); format: functional, cell-based
D(1A) dopamine receptor [2] = target: T1, D(1A) dopamine receptor (Homo sapiens, UniProt P21728); format: functional, cell-based
[3] = target: T2, Muscarinic acetylcholine receptor M1 (Homo sapiens, UniProt P11229); format: functional, cell-based
T2 sequence (P11229 whole entry): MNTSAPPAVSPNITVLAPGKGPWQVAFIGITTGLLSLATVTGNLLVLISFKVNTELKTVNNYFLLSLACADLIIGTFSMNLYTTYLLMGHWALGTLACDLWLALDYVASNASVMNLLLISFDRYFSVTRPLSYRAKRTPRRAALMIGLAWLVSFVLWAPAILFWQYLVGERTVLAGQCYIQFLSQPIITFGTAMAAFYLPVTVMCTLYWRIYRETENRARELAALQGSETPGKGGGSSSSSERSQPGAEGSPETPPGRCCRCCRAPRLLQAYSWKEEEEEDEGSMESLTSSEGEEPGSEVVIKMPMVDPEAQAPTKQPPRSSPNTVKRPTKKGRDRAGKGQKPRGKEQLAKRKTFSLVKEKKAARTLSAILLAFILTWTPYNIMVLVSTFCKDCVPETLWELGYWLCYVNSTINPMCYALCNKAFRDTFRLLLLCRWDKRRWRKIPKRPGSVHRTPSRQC

[4] = target: T2, Muscarinic acetylcholine receptor M1; format: functional, cell-based; remark: listed apart in the source
[5] = target: T3, Muscarinic acetylcholine receptor M2 (Homo sapiens, UniProt P08172)
T3 sequence (P08172 whole entry): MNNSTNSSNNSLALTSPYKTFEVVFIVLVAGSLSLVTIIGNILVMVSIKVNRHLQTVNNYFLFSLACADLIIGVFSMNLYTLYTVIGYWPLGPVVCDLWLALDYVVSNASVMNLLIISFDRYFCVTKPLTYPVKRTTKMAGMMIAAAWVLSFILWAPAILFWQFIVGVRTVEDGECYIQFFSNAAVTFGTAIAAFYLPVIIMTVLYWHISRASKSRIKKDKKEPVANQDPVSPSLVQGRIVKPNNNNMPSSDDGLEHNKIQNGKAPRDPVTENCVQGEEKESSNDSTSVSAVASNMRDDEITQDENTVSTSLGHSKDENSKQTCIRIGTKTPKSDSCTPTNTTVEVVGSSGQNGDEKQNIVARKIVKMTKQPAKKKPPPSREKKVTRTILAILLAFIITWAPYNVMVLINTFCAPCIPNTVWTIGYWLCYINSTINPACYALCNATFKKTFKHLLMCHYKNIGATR

[6] = target: T4, Alpha-1A adrenergic receptor (Homo sapiens, UniProt P35348)
T4 sequence (P35348 whole entry): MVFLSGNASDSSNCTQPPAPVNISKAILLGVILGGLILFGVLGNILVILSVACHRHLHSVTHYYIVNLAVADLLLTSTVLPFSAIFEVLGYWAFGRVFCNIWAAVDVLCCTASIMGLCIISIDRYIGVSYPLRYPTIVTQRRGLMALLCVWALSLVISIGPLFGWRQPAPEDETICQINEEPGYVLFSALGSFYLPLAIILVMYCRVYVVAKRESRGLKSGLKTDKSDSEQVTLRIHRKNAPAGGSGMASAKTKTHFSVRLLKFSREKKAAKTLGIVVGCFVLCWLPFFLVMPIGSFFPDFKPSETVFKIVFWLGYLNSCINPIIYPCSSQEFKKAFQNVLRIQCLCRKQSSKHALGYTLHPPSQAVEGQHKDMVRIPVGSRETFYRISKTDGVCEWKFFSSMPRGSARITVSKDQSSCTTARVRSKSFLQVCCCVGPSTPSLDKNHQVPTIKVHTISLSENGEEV

[7] = target: Sodium-dependent dopamine transporter (Homo sapiens, UniProt Q01959)
Chain of Sodium-dependent dopamine transporter (Q01959 whole entry): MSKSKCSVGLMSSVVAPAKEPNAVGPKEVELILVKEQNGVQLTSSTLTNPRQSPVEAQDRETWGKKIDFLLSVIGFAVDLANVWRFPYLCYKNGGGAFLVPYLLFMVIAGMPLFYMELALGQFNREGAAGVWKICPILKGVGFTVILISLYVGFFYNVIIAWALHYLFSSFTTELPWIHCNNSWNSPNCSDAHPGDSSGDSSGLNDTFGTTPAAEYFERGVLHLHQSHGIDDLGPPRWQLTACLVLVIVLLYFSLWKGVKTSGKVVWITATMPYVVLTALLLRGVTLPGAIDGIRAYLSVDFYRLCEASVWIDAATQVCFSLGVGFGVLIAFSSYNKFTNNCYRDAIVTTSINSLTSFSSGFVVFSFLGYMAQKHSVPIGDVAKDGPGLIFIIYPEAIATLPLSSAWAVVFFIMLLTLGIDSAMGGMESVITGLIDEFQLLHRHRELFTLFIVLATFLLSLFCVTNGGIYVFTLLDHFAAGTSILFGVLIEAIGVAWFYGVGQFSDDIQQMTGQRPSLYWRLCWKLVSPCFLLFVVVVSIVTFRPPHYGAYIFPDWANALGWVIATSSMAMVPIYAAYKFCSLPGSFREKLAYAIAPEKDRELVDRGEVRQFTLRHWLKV

Estrogen receptor = target: T5, Estrogen receptor (Homo sapiens, UniProt P03372)
T5 sequence (P03372 whole entry): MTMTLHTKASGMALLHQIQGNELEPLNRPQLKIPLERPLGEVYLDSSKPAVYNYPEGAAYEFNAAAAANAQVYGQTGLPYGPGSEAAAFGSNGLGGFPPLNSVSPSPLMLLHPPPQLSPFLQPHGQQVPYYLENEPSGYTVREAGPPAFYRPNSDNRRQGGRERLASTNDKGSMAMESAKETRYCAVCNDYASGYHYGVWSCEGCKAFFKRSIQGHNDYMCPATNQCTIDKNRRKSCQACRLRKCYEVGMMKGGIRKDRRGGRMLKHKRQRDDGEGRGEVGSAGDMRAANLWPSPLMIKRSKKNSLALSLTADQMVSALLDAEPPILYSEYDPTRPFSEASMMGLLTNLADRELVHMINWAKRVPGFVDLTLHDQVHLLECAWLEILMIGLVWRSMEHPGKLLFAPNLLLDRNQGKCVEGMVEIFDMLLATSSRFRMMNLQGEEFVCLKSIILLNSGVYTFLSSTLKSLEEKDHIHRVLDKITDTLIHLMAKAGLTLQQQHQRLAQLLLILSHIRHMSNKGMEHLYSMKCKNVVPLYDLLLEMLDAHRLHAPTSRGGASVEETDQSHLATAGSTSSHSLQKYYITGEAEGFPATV

D(3) dopamine receptor = D(3) dopamine receptor (Homo sapiens, UniProt P35462)
Chain of D(3) dopamine receptor (P35462 whole entry): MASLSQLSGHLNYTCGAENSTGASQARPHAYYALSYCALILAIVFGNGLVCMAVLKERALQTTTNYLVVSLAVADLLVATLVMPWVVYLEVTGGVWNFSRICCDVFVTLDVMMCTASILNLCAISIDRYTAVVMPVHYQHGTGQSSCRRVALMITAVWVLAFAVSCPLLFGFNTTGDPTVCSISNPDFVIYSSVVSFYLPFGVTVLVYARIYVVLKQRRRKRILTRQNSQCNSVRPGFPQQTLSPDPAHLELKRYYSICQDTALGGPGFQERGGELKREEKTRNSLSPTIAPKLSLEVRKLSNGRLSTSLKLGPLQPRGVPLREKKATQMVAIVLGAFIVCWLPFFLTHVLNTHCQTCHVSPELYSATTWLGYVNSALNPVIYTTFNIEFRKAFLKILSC

[8] = target: Sodium-dependent noradrenaline transporter (Homo sapiens, UniProt P23975)
Chain of Sodium-dependent noradrenaline transporter (P23975 whole entry): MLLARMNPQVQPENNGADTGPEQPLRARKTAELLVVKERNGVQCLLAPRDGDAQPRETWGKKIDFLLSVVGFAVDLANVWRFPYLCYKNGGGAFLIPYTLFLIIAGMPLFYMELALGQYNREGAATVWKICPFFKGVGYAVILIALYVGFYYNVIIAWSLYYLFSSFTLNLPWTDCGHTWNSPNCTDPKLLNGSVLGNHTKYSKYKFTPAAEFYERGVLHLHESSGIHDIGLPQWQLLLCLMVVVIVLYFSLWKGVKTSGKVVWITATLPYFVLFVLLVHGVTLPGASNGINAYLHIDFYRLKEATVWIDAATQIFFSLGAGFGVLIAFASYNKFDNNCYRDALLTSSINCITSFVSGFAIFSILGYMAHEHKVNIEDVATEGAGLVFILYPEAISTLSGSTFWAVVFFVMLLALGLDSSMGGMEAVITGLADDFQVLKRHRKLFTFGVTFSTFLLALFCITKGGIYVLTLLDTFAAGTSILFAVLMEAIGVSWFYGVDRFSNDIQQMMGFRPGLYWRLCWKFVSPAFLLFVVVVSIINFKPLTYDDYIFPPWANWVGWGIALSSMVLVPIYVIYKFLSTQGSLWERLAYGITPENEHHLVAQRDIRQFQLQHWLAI

[9] = target: T6, Prostaglandin G/H synthase 1 (Homo sapiens, UniProt P23219); format: functional
T6 sequence (P23219 whole entry): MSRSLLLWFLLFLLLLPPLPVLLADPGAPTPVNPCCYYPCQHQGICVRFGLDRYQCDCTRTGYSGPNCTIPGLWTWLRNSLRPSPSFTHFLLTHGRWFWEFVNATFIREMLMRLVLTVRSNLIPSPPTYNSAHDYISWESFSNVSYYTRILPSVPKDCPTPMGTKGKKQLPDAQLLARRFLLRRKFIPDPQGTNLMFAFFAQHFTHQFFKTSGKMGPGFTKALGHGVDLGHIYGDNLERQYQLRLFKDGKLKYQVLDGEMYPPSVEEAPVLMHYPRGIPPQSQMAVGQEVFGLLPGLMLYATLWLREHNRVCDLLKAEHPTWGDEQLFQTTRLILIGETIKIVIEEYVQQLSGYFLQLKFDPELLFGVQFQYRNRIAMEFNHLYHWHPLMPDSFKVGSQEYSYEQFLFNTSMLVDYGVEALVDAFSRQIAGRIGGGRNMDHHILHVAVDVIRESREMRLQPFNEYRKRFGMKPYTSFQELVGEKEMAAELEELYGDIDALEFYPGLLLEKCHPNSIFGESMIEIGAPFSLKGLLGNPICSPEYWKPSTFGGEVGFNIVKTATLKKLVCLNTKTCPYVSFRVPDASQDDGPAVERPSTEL

D(1A) dopamine receptor [10] = target: T1, D(1A) dopamine receptor
[11] = target: T6, Prostaglandin G/H synthase 1; format: functional; remark: listed apart in the source
[12] = target: 5-hydroxytryptamine receptor 2B (Homo sapiens, UniProt P41595); format: functional, cell-based
Further: assay procedure not described here.

T1 sequence (P21728 whole entry): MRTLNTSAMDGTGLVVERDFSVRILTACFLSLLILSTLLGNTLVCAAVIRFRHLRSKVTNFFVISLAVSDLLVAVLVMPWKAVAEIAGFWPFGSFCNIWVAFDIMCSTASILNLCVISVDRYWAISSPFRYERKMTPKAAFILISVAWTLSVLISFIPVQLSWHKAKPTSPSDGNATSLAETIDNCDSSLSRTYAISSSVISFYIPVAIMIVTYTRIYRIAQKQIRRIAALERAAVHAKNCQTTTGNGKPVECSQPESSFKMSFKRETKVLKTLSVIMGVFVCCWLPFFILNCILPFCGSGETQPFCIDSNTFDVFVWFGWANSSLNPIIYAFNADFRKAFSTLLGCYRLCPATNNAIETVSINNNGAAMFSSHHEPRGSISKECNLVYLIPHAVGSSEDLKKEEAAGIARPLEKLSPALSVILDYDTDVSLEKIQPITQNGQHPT
Chain of Voltage-dependent L-type calcium channel subunit alpha-1C (Q13936 whole entry): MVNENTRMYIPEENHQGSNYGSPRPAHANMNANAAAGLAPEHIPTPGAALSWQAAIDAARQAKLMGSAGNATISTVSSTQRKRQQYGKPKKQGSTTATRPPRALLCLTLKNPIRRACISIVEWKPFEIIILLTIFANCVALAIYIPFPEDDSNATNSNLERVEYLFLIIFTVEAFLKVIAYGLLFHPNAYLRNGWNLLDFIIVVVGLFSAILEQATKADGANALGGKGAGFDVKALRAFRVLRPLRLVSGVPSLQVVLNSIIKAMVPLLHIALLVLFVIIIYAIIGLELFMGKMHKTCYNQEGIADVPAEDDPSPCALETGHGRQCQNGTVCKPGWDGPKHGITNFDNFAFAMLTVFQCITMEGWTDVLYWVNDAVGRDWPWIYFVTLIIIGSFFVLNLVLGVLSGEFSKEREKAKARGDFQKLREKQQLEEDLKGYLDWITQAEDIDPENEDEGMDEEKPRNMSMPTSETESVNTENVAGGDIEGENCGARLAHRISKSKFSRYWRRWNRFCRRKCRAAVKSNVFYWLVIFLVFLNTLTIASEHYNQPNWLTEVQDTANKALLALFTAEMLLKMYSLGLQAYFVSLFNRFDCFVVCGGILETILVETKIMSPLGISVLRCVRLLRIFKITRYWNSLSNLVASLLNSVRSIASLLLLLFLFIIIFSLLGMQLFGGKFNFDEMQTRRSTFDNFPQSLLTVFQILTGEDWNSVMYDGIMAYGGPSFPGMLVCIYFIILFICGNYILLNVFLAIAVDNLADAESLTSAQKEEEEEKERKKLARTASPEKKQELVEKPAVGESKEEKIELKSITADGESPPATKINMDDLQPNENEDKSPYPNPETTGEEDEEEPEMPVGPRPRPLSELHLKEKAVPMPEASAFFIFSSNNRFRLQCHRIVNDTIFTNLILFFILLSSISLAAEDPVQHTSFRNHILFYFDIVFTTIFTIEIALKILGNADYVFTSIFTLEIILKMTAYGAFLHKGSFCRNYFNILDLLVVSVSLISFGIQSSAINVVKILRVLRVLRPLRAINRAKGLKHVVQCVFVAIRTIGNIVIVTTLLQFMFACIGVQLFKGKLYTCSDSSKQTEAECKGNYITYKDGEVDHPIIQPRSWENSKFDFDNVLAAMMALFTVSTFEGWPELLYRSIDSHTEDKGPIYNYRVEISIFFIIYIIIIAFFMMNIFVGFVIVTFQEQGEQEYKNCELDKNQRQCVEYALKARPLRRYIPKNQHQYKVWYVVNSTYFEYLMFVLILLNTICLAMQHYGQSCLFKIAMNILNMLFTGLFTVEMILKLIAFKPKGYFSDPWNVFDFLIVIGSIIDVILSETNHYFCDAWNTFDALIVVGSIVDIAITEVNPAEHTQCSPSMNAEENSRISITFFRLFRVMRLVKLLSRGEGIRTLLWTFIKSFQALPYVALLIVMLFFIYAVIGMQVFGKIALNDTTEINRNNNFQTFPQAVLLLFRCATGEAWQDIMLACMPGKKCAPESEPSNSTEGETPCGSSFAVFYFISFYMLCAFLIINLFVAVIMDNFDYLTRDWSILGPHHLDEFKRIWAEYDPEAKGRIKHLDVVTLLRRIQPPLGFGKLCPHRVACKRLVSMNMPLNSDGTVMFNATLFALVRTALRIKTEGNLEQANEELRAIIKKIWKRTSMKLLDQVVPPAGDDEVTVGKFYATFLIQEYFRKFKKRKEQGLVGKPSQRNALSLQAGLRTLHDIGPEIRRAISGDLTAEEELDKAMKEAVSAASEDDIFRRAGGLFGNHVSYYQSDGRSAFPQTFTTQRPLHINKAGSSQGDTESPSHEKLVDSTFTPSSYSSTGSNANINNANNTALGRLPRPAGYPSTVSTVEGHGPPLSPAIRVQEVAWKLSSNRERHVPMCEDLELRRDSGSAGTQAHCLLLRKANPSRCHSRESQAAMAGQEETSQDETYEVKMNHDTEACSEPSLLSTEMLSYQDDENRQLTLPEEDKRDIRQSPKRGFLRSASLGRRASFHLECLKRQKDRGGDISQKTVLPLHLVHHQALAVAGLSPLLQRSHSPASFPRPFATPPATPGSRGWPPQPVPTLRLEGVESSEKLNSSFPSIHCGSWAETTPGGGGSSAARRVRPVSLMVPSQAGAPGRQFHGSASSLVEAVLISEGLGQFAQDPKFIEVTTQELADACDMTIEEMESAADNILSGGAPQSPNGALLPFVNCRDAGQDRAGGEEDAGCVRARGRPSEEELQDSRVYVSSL

N#Cc1ccccc1-c1cc(-c2ccccn2)cn(-c2ccccc2)c1=O
AC50 [1]: > 30 µM

O=C(CCCN1CCC(n2c(O)nc3ccccc32)CC1)c1ccc(F)cc1 [BENPERIDOL]
AC50 (D(1A) dopamine receptor [2]): 7.5 µM

CCN(CC)C(=O)C1CN2CCc3cc(OC)c(OC)cc3C2CC1OC(C)=O (stereo not drawn) [BENZQUINAMIDE]
AC50 [3]: > 30000 nM
AC50 [4]: > 30 µM

CC(C)(C)NCC(O)c1cc(Cl)c(N)c(Cl)c1 (stereo not drawn) [CLENBUTEROL]
AC50 (D(1A) dopamine receptor [2]): > 30 µM

COC(=O)N[C@@H](C)CNc1nccc(-c2cn(C(C)C)nc2-c2cc(Cl)cc(NS(C)(=O)=O)c2F)n1 [ENCORAFENIB]
AC50 [1]: > 30 µM

C[n+]1ccccc1/C=N/O [PRALIDOXIME]
AC50 [5]: > 30 µM
AC50 [6]: > 30 µM
AC50 [7]: > 30 µM
AC50 (Estrogen receptor): > 30 µM
AC50 (D(3) dopamine receptor): > 30 µM
AC50 [8]: > 30 µM
AC50 [9]: > 30 µM
AC50 (D(1A) dopamine receptor [10]): > 30 µM
AC50 [11]: > 30 µM
AC50 [12]: > 30 µM

CCCOC(C(=O)OC1CCN(C)CC1)(c1ccccc1)c1ccccc1 [PROPIVERINE]
AC50 [3]: 590 nM
AC50 [4]: > 30 µM

COLISTIN
AC50 [5]: > 30 µM
AC50 [6]: > 30 µM
AC50 [7]: 26.6 µM
AC50 (Estrogen receptor): > 30 µM
AC50 (D(3) dopamine receptor): > 30 µM
AC50 [8]: > 30 µM
AC50 [9]: 11.2 µM
AC50 (D(1A) dopamine receptor [10]): > 30 µM
AC50 [11]: > 30 µM
AC50 [12]: > 30 µM
